Measurements taken from US10780074B2, “Compounds and uses thereof” (Sunovion Pharmaceuticals Inc., priority 2017, dated 2020).
Counter-ions that a name gives are not always drawn.

Test system: behaviors of compound-treated mice
Assay: Neuropharmacological Assay (SmartCube)
Type: in vivo
Conditions: for minimal effective dose: Mus musculus, ip, 0.25 h, dose having 50% or more total activity in SmartCube, i.p., read-out: MED (minimal effective dose); for AD: ADHD (probability that activity matches class) / AG: analgesic (probability that activity matches class) / AX: anxiolytic (probability that activity matches class) / CE: cognitive enhancer (probability that activity matches class) / DP: anti-depressant (probability that activity matches class) / MS: mood stabilizer (probability that activity matches class) / PS: anti-psychotic (probability that activity matches class) / SD: sedative hypnotic (probability that activity matches class) / UN: uncharacterized CNS activity (probability that activity matches class): i.p. 15 min before behavioral test, most efficacious dose(s) of 3 doses
In short: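 Behavioral signatures were captured automatically by video, and each drug class received a probability for the best of three i.p. doses given 15 min pre-test (vehicle: Pharmasolve/PEG/propylene glycol). Potency is given as MED, the lowest mpk dose (typically 0.3–30) reaching 50% or more total activity.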

Compound: NCC1OCCc2c(-c3ccncn3)cccc21 (centres unmarked) [Compound 60, (5-(Pyrimidin-4-yl)isochroman-1-yl)methanamine hydrochloride salt]
- minimal effective dose: 3 to 10 mg/kg
- AD: ADHD (probability that activity matches class): + (LOQ ≤ + <5%)
- AG: analgesic (probability that activity matches class): ++ (5% ≤ ++ <25%)
- AX: anxiolytic (probability that activity matches class): ++ (5% ≤ ++ <25%)
- CE: cognitive enhancer (probability that activity matches class): + (LOQ ≤ + <5%)
- DP: anti-depressant (probability that activity matches class): ++++ (50% ≤ ++++)
- MS: mood stabilizer (probability that activity matches class): + (LOQ ≤ + <5%)
- PS: anti-psychotic (probability that activity matches class): + (LOQ ≤ + <5%)
- SD: sedative hypnotic (probability that activity matches class): + (LOQ ≤ + <5%)
- UN: uncharacterized CNS activity (probability that activity matches class): + (LOQ ≤ + <5%)

Compound: NCC1OCCc2c(-c3ccnnc3)cccc21 (centres unmarked) [Compound 61, (5-(Pyridazin-4-yl)isochroman-1-yl)methanamine hydrochloride salt]
- minimal effective dose: 10 to 30 mg/kg
- AD: ADHD (probability that activity matches class): + (LOQ ≤ + <5%)
- AG: analgesic (probability that activity matches class): + (LOQ ≤ + <5%)
- AX: anxiolytic (probability that activity matches class): ++ (5% ≤ ++ <25%)
- CE: cognitive enhancer (probability that activity matches class): + (LOQ ≤ + <5%)
- DP: anti-depressant (probability that activity matches class): ++ (5% ≤ ++ <25%)
- MS: mood stabilizer (probability that activity matches class): + (LOQ ≤ + <5%)
- PS: anti-psychotic (probability that activity matches class): + (LOQ ≤ + <5%)
- SD: sedative hypnotic (probability that activity matches class): + (LOQ ≤ + <5%)
- UN: uncharacterized CNS activity (probability that activity matches class): ++++ (50% ≤ ++++)

Compound: NCC1OCCc2c(-c3cccnn3)cccc21 (centres unmarked) [Compound 62, (5-(Pyridazin-3-yl)isochroman-1-yl)methanaminehydrochloride salt]
- minimal effective dose: > 30 mg/kg
- AD: ADHD (probability that activity matches class): + (LOQ ≤ + <5%)
- AG: analgesic (probability that activity matches class): + (LOQ ≤ + <5%)
- AX: anxiolytic (probability that activity matches class): ++ (5% ≤ ++ <25%)
- CE: cognitive enhancer (probability that activity matches class): + (LOQ ≤ + <5%)
- DP: anti-depressant (probability that activity matches class): ++ (5% ≤ ++ <25%)
- MS: mood stabilizer (probability that activity matches class): + (LOQ ≤ + <5%)
- PS: anti-psychotic (probability that activity matches class): + (LOQ ≤ + <5%)
- SD: sedative hypnotic (probability that activity matches class): + (LOQ ≤ + <5%)
- UN: uncharacterized CNS activity (probability that activity matches class): + (LOQ ≤ + <5%)

Compound: NCC1OCCc2c(-c3cnccn3)cccc21 (centres unmarked) [Compound 63, (5-(Pyrazin-2-yl)isochroman-1-yl)methanamine hydrochloride salt]
- minimal effective dose: 3 to 10 mg/kg
- AD: ADHD (probability that activity matches class): ++ (5% ≤ ++ <25%)
- AG: analgesic (probability that activity matches class): + (LOQ ≤ + <5%)
- AX: anxiolytic (probability that activity matches class): ++ (5% ≤ ++ <25%)
- CE: cognitive enhancer (probability that activity matches class): + (LOQ ≤ + <5%)
- DP: anti-depressant (probability that activity matches class): ++++ (50% ≤ ++++)
- MS: mood stabilizer (probability that activity matches class): + (LOQ ≤ + <5%)
- PS: anti-psychotic (probability that activity matches class): + (LOQ ≤ + <5%)
- SD: sedative hypnotic (probability that activity matches class): + (LOQ ≤ + <5%)
- UN: uncharacterized CNS activity (probability that activity matches class): + (LOQ ≤ + <5%)

Compound: NCC1OCCc2c(-c3cnoc3)cccc21 (centres unmarked) [Compound 64, (5-(Isoxazol-4-yl)isochroman-1-yl)methanamine hydrochloride salt]
- minimal effective dose: 3 to 10 mg/kg
- AD: ADHD (probability that activity matches class): + (LOQ ≤ + <5%)
- AG: analgesic (probability that activity matches class): + (LOQ ≤ + <5%)
- AX: anxiolytic (probability that activity matches class): + (LOQ ≤ + <5%)
- CE: cognitive enhancer (probability that activity matches class): + (LOQ ≤ + <5%)
- DP: anti-depressant (probability that activity matches class): ++++ (50% ≤ ++++)
- MS: mood stabilizer (probability that activity matches class): + (LOQ ≤ + <5%)
- PS: anti-psychotic (probability that activity matches class): + (LOQ ≤ + <5%)
- SD: sedative hypnotic (probability that activity matches class): + (LOQ ≤ + <5%)
- UN: uncharacterized CNS activity (probability that activity matches class): ++ (5% ≤ ++ <25%)

Compound: CNCC1OCCc2c(-c3cnoc3)cccc21 (centres unmarked) [Compound 65, 1-(5-(Isoxazol-4-yl)isochroman-1-yl)-N-methylmethanamine hydrochloride salt]
- minimal effective dose: 3 to 10 mg/kg
- AD: ADHD (probability that activity matches class): ++ (5% ≤ ++ <25%)
- AG: analgesic (probability that activity matches class): + (LOQ ≤ + <5%)
- AX: anxiolytic (probability that activity matches class): + (LOQ ≤ + <5%)
- CE: cognitive enhancer (probability that activity matches class): ++ (5% ≤ ++ <25%)
- DP: anti-depressant (probability that activity matches class): ++++ (50% ≤ ++++)
- MS: mood stabilizer (probability that activity matches class): + (LOQ ≤ + <5%)
- PS: anti-psychotic (probability that activity matches class): ++ (5% ≤ ++ <25%)
- SD: sedative hypnotic (probability that activity matches class): ++ (5% ≤ ++ <25%)
- UN: uncharacterized CNS activity (probability that activity matches class): ++ (5% ≤ ++ <25%)

Compound: CNC[C@@H]1OCCc2c(-c3ccno3)cccc21 [Compound 94, (R)-1-(5-(Isoxazol-5-yl)isochroman-1-yl)-N-methylmethanamine]
- minimal effective dose: 10 to 30 mg/kg
- AD: ADHD (probability that activity matches class): + (LOQ ≤ + <5%)
- AG: analgesic (probability that activity matches class): + (LOQ ≤ + <5%)
- AX: anxiolytic (probability that activity matches class): + (LOQ ≤ + <5%)
- CE: cognitive enhancer (probability that activity matches class): + (LOQ ≤ + <5%)
- DP: anti-depressant (probability that activity matches class): + (LOQ ≤ + <5%)
- MS: mood stabilizer (probability that activity matches class): + (LOQ ≤ + <5%)
- PS: anti-psychotic (probability that activity matches class): + (LOQ ≤ + <5%)
- SD: sedative hypnotic (probability that activity matches class): + (LOQ ≤ + <5%)
- UN: uncharacterized CNS activity (probability that activity matches class): + (LOQ ≤ + <5%)

Compound: CNC[C@H]1OCCc2c(-c3ccno3)cccc21 [Compound 95, (S)-1-(5-(Isoxazol-5-yl)isochroman-1-yl)-N-methylmethanamine]
- minimal effective dose: ≤ 3 mg/kg
- AD: ADHD (probability that activity matches class): ++++ (50% ≤ ++++)
- AG: analgesic (probability that activity matches class): + (LOQ ≤ + <5%)
- AX: anxiolytic (probability that activity matches class): ++ (5% ≤ ++ <25%)
- CE: cognitive enhancer (probability that activity matches class): + (LOQ ≤ + <5%)
- DP: anti-depressant (probability that activity matches class): ++++ (50% ≤ ++++)
- MS: mood stabilizer (probability that activity matches class): + (LOQ ≤ + <5%)
- PS: anti-psychotic (probability that activity matches class): + (LOQ ≤ + <5%)
- SD: sedative hypnotic (probability that activity matches class): ++ (5% ≤ ++ <25%)
- UN: uncharacterized CNS activity (probability that activity matches class): ++ (5% ≤ ++ <25%)

Compound: NC[C@@H]1OCCc2c(-c3cocn3)cccc21 [Compound 100, (R)-(5-(oxazol-4-yl)isochroman-1-yl)methanamine HCl salt]
- minimal effective dose: 3 to 10 mg/kg
- AD: ADHD (probability that activity matches class): + (LOQ ≤ + <5%)
- AG: analgesic (probability that activity matches class): + (LOQ ≤ + <5%)
- AX: anxiolytic (probability that activity matches class): ++ (5% ≤ ++ <25%)
- CE: cognitive enhancer (probability that activity matches class): + (LOQ ≤ + <5%)
- DP: anti-depressant (probability that activity matches class): + (LOQ ≤ + <5%)
- MS: mood stabilizer (probability that activity matches class): + (LOQ ≤ + <5%)
- PS: anti-psychotic (probability that activity matches class): + (LOQ ≤ + <5%)
- SD: sedative hypnotic (probability that activity matches class): + (LOQ ≤ + <5%)
- UN: uncharacterized CNS activity (probability that activity matches class): ++++ (50% ≤ ++++)

Compound: NC[C@H]1OCCc2c(-c3cocn3)cccc21 [Compound 101, (S)-(5-(oxazol-4-yl)isochroman-1-yl)methanamine HCl salt]
- minimal effective dose: 3 to 10 mg/kg
- AD: ADHD (probability that activity matches class): ++ (5% ≤ ++ <25%)
- AG: analgesic (probability that activity matches class): + (LOQ ≤ + <5%)
- AX: anxiolytic (probability that activity matches class): ++ (5% ≤ ++ <25%)
- CE: cognitive enhancer (probability that activity matches class): + (LOQ ≤ + <5%)
- DP: anti-depressant (probability that activity matches class): ++ (5% ≤ ++ <25%)
- MS: mood stabilizer (probability that activity matches class): + (LOQ ≤ + <5%)
- PS: anti-psychotic (probability that activity matches class): + (LOQ ≤ + <5%)
- SD: sedative hypnotic (probability that activity matches class): + (LOQ ≤ + <5%)
- UN: uncharacterized CNS activity (probability that activity matches class): ++ (5% ≤ ++ <25%)

Compound: CNC[C@@H]1OCCc2c(-c3cocn3)cccc21 [Compound 102, (R)—N-methyl-1-(5-(oxazol-4-yl)isochroman-1-yl)methanamine HCl salt]
- minimal effective dose: 10 to 30 mg/kg
- AD: ADHD (probability that activity matches class): + (LOQ ≤ + <5%)
- AG: analgesic (probability that activity matches class): + (LOQ ≤ + <5%)
- AX: anxiolytic (probability that activity matches class): ++ (5% ≤ ++ <25%)
- CE: cognitive enhancer (probability that activity matches class): + (LOQ ≤ + <5%)
- DP: anti-depressant (probability that activity matches class): + (LOQ ≤ + <5%)
- MS: mood stabilizer (probability that activity matches class): + (LOQ ≤ + <5%)
- PS: anti-psychotic (probability that activity matches class): + (LOQ ≤ + <5%)
- SD: sedative hypnotic (probability that activity matches class): + (LOQ ≤ + <5%)
- UN: uncharacterized CNS activity (probability that activity matches class): + (LOQ ≤ + <5%)
